Experimental findings from patent publication US20240002365A1, “PYRIDAZINE AND 1,2,4-TRIAZINE DERIVATIVES AS FGFR KINASE INHIBITORS” (BETA PHARMA, INC., priority 2020, published 2024) are described below.

The target in the experiment is FGFR1 (Homo sapiens (Human), UniProt P11362). Briefly: RBC NanoBRET Assay for Target Engagement in HEK293 cells transfected with FGFR1-NanoLuc Fusion vector. The format is cell-based. The conditions noted are these: 1 hour, tracer K5 1 μM. How it is done: Cellular Assay. The RBC NanoBRET Assay for Target Engagement was performed by Reaction Biology Corporation, 1 Great Valley Parkway, Suite 2 Malvern, PA 19355, USA. The assay was conducted in HEK293 cells transiently transfected with FGFR1-NanoLuc Fusion vector. The HEK293 cells (ATCC) were transfected with 1 μg of FGFR1-NanoLuc Fusion vector in 384-well format and the transfected cells were subsequently treated with the test compounds (starting at 10 μM, 10-dose with 3-fold dilution) for 1 hour using CTx-0294885 as the reference standard and K5 (1 μM) was used as the tracer. FGFR1 target engagement was measured and the curve fits were performed only when % NanoBret signal at the highest concentration of compounds was less than 55%.
Chain of FGFR1 (P11362 22-822): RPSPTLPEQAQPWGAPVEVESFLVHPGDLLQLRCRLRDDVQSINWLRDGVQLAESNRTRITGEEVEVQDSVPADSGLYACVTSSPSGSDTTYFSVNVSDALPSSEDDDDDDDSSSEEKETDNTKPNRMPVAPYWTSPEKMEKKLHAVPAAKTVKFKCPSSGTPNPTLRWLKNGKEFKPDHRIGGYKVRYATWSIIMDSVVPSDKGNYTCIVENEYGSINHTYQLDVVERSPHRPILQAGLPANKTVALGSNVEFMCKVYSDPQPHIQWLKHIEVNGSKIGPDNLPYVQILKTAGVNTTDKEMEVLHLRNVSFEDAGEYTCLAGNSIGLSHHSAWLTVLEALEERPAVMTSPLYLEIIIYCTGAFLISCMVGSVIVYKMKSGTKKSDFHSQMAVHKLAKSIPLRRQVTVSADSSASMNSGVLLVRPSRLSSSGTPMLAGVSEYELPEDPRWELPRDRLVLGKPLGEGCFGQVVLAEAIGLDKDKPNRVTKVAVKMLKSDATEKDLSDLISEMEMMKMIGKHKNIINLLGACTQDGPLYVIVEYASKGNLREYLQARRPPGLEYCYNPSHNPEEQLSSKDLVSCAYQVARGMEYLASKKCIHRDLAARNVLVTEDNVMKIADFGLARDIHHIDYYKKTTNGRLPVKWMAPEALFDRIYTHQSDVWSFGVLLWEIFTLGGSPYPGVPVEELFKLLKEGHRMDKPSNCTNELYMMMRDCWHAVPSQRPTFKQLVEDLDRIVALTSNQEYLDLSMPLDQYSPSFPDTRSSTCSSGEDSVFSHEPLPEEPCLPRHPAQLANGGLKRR

As to `CNC(=O)c1ccccc1Nc1nc(Nc2ccc(N3CCNCC3)cc2)ncc1Cl` [CTx-0294885, reference compound], inhibition was half-maximal at 35 nM (IC50).
